Read-outs that look alike come from different tables or passages of the source.
Tested on: mouse (MC3T3-E1) and human (TE-85) osteoblast-line cells
Assay type: cell-based
Description: Compounds of the present invention have utility to treat osteoporosis through enhancement of bone calcification rather than traditional approaches which generally involve inhibition of bone degeneration or resorption. The compounds of the present invention have been evaluated as stimulators of proliferation of osteoblast cell and chick calivaria bone organ culture which is predictive of enhancement of bone mass and bone formation in vivo.
The action of select compounds to stimulate osteoblast growth was measured in culture by estimating the rate of DNA synthesis by the rate of ^3 H-thymidine incorporation into DNA. Only cells undergoing mitosis synthesized new DNA and thus only these cells incorporated the radiolabelled DNA-specific thymidine. The stimulation of the proliferation and differentiation of bone-forming cells, osteoblasts, was a prerequisite for an increase in bone formation and bone mass. The ability of agents to increase osteoblast proliferation and differentiation can be predicted by their action on cultured osteoblast-line cells in vitro. In this test, mouse (MC3T3-E1) and human (TE-85) osteoblast-line cells (American Type Tissue Culture Collection, #CRL 1543, Rockville, Md. cloned by Sudo et al., Koriyama, Japan) were cultured in vitro and the effect of various agents were tested on osteoblast cell proliferation. Cells were harvested from large culture flasks where they were allowed to grow to near confluency using trypsin. The cells were plated into 96 well culture plates, 1600 cells in 100 μL per well in Dulbencos Modified Eagle's Medium (DMEM) with 25 mM HEPES buffer, L-glutamine (584 mg/L); D-glucose (4.5 g/L) supplemented with fetal bovine sera (10%); penicillin (100 units/mL) and streptomycin (100 mcg/mL); sodium pyruvate (10 μM final concentration). The cells were allowed to plate overnight in DMEM containing 10% fetal bovine sera at 37° C. in an atmosphere of 5% CO2/95% air. Following their placement into 96 well culture plates all the osteoblast-line cells, either the MC3T3-E1 or the TE-85 cell lines, were allowed an additional 24 hours preincubation period in media containing only 0.1% fetal bovine sera.
Twenty hours later, a 20 μL aliquot of media containing 0.4 μCi of ^3 H-thymidine was added to each culture well. The cells were then incubated an additional 4 hours. The incubation was terminated by aspirating the media and washing with HBSS (Hank's Balanced Salt Solution). The cells were then treated with 100 μL of 0.5% trypsin and 5.3 mM EDTA for 30 minutes at room temperature. The cells were then aspirated onto glass fiber filter and washed with water. The radioactivity on the filters was quantified by liquid scintillation spectroscopy. The rate of ^3 H-thymidine incorporation into DNA was then utilized as an index of cell proliferation. The results are shown in Table 13 expressed as % times control where the control is 100%. […]

CCOP(=O)(c1ccccc1)N1CCCC(c2ccc(F)cc2)=N1 (stereo not drawn) [Compound 259]
Osteoblast Cell Proliferation, 3H-thymidine incorporation vs control (100%) (10^-6): 116% | Osteoblast Cell Proliferation, 3H-thymidine incorporation vs control (100%) (10^-7): 96% | Osteoblast Cell Proliferation, 3H-thymidine incorporation vs control (100%) (10^-8): 102% | Osteoblast Cell Proliferation, 3H-thymidine incorporation vs control (100%) (10^-9): 121% | Osteoblast Cell Proliferation, 3H-thymidine incorporation vs control (100%) (10^-10): 106%

COP(=O)(c1ccccc1)N1CCCC(c2ccc(F)cc2)=N1 (stereo not drawn) [Compound 258]
Osteoblast Cell Proliferation, 3H-thymidine incorporation vs control (100%) (10^-6): 107% | Osteoblast Cell Proliferation, 3H-thymidine incorporation vs control (100%) (10^-7): 107% | Osteoblast Cell Proliferation, 3H-thymidine incorporation vs control (100%) (10^-8): 108% | Osteoblast Cell Proliferation, 3H-thymidine incorporation vs control (100%) (10^-9): 107% | Osteoblast Cell Proliferation, 3H-thymidine incorporation vs control (100%) (10^-10): 98%

S=C(c1ccc(Cl)c(Cl)c1)N1CCCC(c2ccccc2)=N1 [Compound 237, 1-(3,4-dichlorothiobenzoyl)-3-phenyl-1,4,5,6-tetrahydropyridazine]
Osteoblast Cell Proliferation, 3H-thymidine incorporation vs control (100%) (10^-7): 113% | Osteoblast Cell Proliferation, 3H-thymidine incorporation vs control (100%) (10^-8): 113% | Osteoblast Cell Proliferation, 3H-thymidine incorporation vs control (100%) (10^-9): 110% | Osteoblast Cell Proliferation, 3H-thymidine incorporation vs control (100%) (10^-10): 119%

COP(=O)(c1ccccc1)N1CCCC(c2ccc(Br)cc2)=N1 (stereo not drawn) [Compound 260]
Osteoblast Cell Proliferation, 3H-thymidine incorporation vs control (100%) (10^-6): 100% | Osteoblast Cell Proliferation, 3H-thymidine incorporation vs control (100%) (10^-7): 115% | Osteoblast Cell Proliferation, 3H-thymidine incorporation vs control (100%) (10^-8): 105% | Osteoblast Cell Proliferation, 3H-thymidine incorporation vs control (100%) (10^-9): 99% | Osteoblast Cell Proliferation, 3H-thymidine incorporation vs control (100%) (10^-10): 90%

CC1CC(c2ccccc2)=NN(C(=O)c2ccc(F)c(F)c2)C1 (racemic) [Compound 235, (R,S)-1-(3,4-difluorobenzoyl)-5-methyl-3-phenyl-1,4,5,6-tetrahydropyridazine]
Osteoblast Cell Proliferation, 3H-thymidine incorporation vs control (100%) (10^-7): 86% | Osteoblast Cell Proliferation, 3H-thymidine incorporation vs control (100%) (10^-8): 87% | Osteoblast Cell Proliferation, 3H-thymidine incorporation vs control (100%) (10^-9): 92% | Osteoblast Cell Proliferation, 3H-thymidine incorporation vs control (100%) (10^-10): 88%

S=C(c1cc(Cl)cc(Cl)c1)N1CCCC(c2ccccc2)=N1 [Compound 247]
Osteoblast Cell Proliferation, 3H-thymidine incorporation vs control (100%) (10^-7): 118% | Osteoblast Cell Proliferation, 3H-thymidine incorporation vs control (100%) (10^-8): 122% | Osteoblast Cell Proliferation, 3H-thymidine incorporation vs control (100%) (10^-9): 122% | Osteoblast Cell Proliferation, 3H-thymidine incorporation vs control (100%) (10^-10): 129%

O=S(=O)(/C=C/c1ccc2ccccc2c1)N1CCCC(c2ccc(Cl)c(Cl)c2)=N1 [Compound 171]
Osteoblast Cell Proliferation, 3H-thymidine incorporation vs control (100%) (10^-6): 72% | Osteoblast Cell Proliferation, 3H-thymidine incorporation vs control (100%) (10^-7): 110% | Osteoblast Cell Proliferation, 3H-thymidine incorporation vs control (100%) (10^-8): 121% | Osteoblast Cell Proliferation, 3H-thymidine incorporation vs control (100%) (10^-9): 118% | Osteoblast Cell Proliferation, 3H-thymidine incorporation vs control (100%) (10^-10): 129%

O=S(=O)(/C=C/c1ccccc1)N1CCCC(c2ccc3c(c2)CCCC3)=N1 [Compound 176]
Osteoblast Cell Proliferation, 3H-thymidine incorporation vs control (100%) (10^-6): 59% | Osteoblast Cell Proliferation, 3H-thymidine incorporation vs control (100%) (10^-7): 94% | Osteoblast Cell Proliferation, 3H-thymidine incorporation vs control (100%) (10^-8): 109% | Osteoblast Cell Proliferation, 3H-thymidine incorporation vs control (100%) (10^-9): 113% | Osteoblast Cell Proliferation, 3H-thymidine incorporation vs control (100%) (10^-10): 109%

CCCCCCc1ccc(S(=O)(=O)N2CCCC(c3ccc(Cl)c(Cl)c3)=N2)cc1 [Compound 121]
Osteoblast Cell Proliferation, 3H-thymidine incorporation vs control (100%) (10^-6): 120% | Osteoblast Cell Proliferation, 3H-thymidine incorporation vs control (100%) (10^-7): 123% | Osteoblast Cell Proliferation, 3H-thymidine incorporation vs control (100%) (10^-8): 122% | Osteoblast Cell Proliferation, 3H-thymidine incorporation vs control (100%) (10^-9): 120% | Osteoblast Cell Proliferation, 3H-thymidine incorporation vs control (100%) (10^-10): 181%
